Laboratory results reported in publication PMC9025560, “A Comparison of Evans Blue and 4-(p-Iodophenyl)butyryl Albumin Binding Moieties on an Integrin αvβ6 Binding Peptide” (Pharmaceutics, 2022).
Read-outs that look alike come from different tables or passages of the source.

How the values were obtained:
human serum protein = assay: Human serum protein binding by ultrafiltration; format: in vitro ADME; conditions: for Binding to human serum protein: 37 °C, ultrafiltration; for Serum albumin binding: abstract, serum species not stated
Procedure: (§1) Serum protein binding of [^64Cu]1 and [^64Cu]2 was assessed following the previously reported method. Peptides [^64Cu]1 and [^64Cu]2 were evaluated by ultrafiltration using Centrifree Ultrafiltration devices (EMD) according to the manufacturer’s recommendations. Experiments were carried out in triplicate. The Centrifree Ultrafiltration devices were pretreated with PBS containing Tween 20 (5% v/v), followed by triplicate rinses with PBS. An aliquot of each peptide [^64Cu]1 or [^64Cu]2 in PBS (≤25 μL, 20–60 KBq) was thoroughly mixed with 0.5 mL of serum at 37 °C in a microfuge tube. The mixture was incubated at 37 °C for 5 min, and an aliquot (50 μL) was transferred to a tube for γ-counting. The remaining sample was transferred to a Centrifree Ultrafiltration device and centrifuged for 40 min at 1500 (RCF) at ambient temperature (20–24 °C). An aliquot (50 μL) of the filtrate was transferred to a tube for γ-counting. For each radiolabeled peptide, a blank was run using 0.5 mL PBS/Tween 20 (5% v/v) instead of serum (n = 3) to determine non-specific binding. Following γ-counting, the protein-bound radioactivity was calculated by subtracting the counts measured in the filtrate aliquot (i.e., not protein-bound) from the counts in the corresponding serum aliquot. The data are expressed as mean ± standard deviation of fraction of radioactivity bound to protein after subtraction of non-specific binding determined in the blank.

mouse serum protein = assay: Mouse serum protein binding by ultrafiltration; format: in vitro ADME; conditions: 37 °C
Procedure: as §1, with “For each radiolabeled peptide, a blank was run using 0.5 mL PBS/Tween 20 (5% v/v) instead of serum (n = 3) to determine non-specific binding.” left out

[1] = Stability in human serum at 37 °C; format: in vitro ADME; conditions: read-out: Stability in human serum, % intact
Procedure: (§2) For serum stability, mouse serum or human serum (0.5 mL, both purchased from Sigma-Aldrich) was combined with an aliquot of each of the peptides [^64Cu]1 and [^64Cu]2 (≤25 μL, 14.8–22.2 MBq) and incubated at 37 °C. At each time point (1, 4, and 24 h) an aliquot (50–200 μL) was taken, proteins precipitated with ethanol, and removed by pelleting at 1500 (RCF) for 4 min. The ethanol solution was diluted with water (1 mL) and analyzed by RP-HPLC as previously described.

[2] = Stability in mouse serum at 37 °C; format: in vitro ADME; conditions: for remaining at 1 h / remaining at 4 h / remaining at 24 h: mouse, mouse serum, read-out: Stability in mouse serum, % intact
Procedure: as §2

[3] = Blocking biodistribution with pre-administered metal free peptide; format: in vivo, mice; conditions: female, athymic nu/nu-nude, mouse, intravenous, total radioactivity, 4 h p.i., metal free peptide 10 min before, n = 1
Procedure: For blocking studies, the metal free peptides 1 or 2 (~220 nmol, 1.3 mg in 100 μL PBS), respectively, were injected i.v. (n = 1/peptide) as described above 10 min prior to the injection of matching radiolabeled [^64Cu]1 or [^64Cu]2 (3.7–5.55 MBq, 100 μL PBS). After a conscious 4 h uptake period, the animals were anesthetized, sacrificed, tissues rapidly collected, and analyzed as described above. Decay-corrected radioactivity concentrations are expressed as a percentage of injected dose per gram of tissue (% ID/g) (Figure S23).

[4] = BxPC-3 tumor, read-out: BxPC-3 Tumor uptake, blocked
[5] = blood, read-out: Blood uptake, blocked
[6] = bone, read-out: Bone uptake, blocked
[7] = brain, read-out: Brain uptake, blocked
[8] = gall bladder, read-out: Gall Bladder uptake, blocked
[9] = heart, read-out: Heart uptake, blocked
[10] = kidneys, read-out: Kidneys uptake, blocked
[11] = large intestines, read-out: Lg. Intestines uptake, blocked
[12] = liver, read-out: Liver uptake, blocked
[13] = lung, read-out: Lung uptake, blocked
[14] = muscle, read-out: Muscle uptake, blocked
[15] = pancreas, read-out: Pancreas uptake, blocked
[16] = skin, read-out: Skin uptake, blocked
[17] = small intestines, read-out: Sm. Intestines uptake, blocked
[18] = stomach, read-out: Stomach uptake, blocked

Row | SMILES | Binding to human serum protein (human serum protein) | Serum albumin binding (human serum protein) | Binding to mouse serum protein (mouse serum protein) | remaining at 1 h [1] | remaining at 4 h [1] | remaining at 24 h [1] | remaining at 1 h [2] | remaining at 4 h [2] | remaining at 24 h ([2]; 24 h) | tissue uptake at 4 h [3, 4] | tissue uptake at 4 h [3, 5] | tissue uptake at 4 h [3, 6] | tissue uptake at 4 h [3, 7] | tissue uptake at 4 h [3, 8] | tissue uptake at 4 h [3, 9] | tissue uptake at 4 h [3, 10] | tissue uptake at 4 h [3, 11] | tissue uptake at 4 h [3, 12] | tissue uptake at 4 h [3, 13] | tissue uptake at 4 h [3, 14] | other results
1 | Cc1cc(-c2ccc(NC(=O)CCC(=O)NCCCC[C@H](NC(=O)CN3CCN(CC(=O)O)CCN(CC(=O)O)CCN(CC(=O)O)CC3)C(=O)NCCOCCOCCOCCOCCOCCOCCOCCOCCOCCOCCOCCOCCOCCOCCOCCOCCOCCOCCOCCOCCOCCOCCOCCOCCOCCOCCOCCOCCC(=O)N[C@@H](CC(N)=O)C(=O)N[C@@H](C)C(=O)N[C@H](C(=O)N3CCC[C@H]3C(=O)N[C@@H](CC(N)=O)C(=O)N[C@@H](CC(C)C)C(=O)N[C@@H](CCCNC(=N)N)C(=O)NCC(=O)N[C@@H](CC(=O)O)C(=O)N[C@@H](CC(C)C)C(=O)N[C@@H](CCC(N)=O)C(=O)N[C@H](C(=O)N[C@@H](CC(C)C)C(=O)N[C@@H](C)C(=O)N[C@@H](CCC(N)=O)C(=O)N[C@@H](CCCNC(=N)N)C(=O)N[C@H](C(=O)N[C@@H](C)C(=O)N[C@@H](CCCNC(=N)N)C(=O)N[C@H](C(=O)NCCOCCOCCOCCOCCOCCOCCOCCOCCOCCOCCOCCOCCOCCOCCOCCOCCOCCOCCOCCOCCOCCOCCOCCOCCOCCOCCOCCOCCC(N)=O)[C@@H](C)O)C(C)C)C(C)C)C(C)C)c(C)c2)ccc1N=Nc1ccc2c(S(=O)(=O)O)cc(S(=O)(=O)O)c(N)c2c1O [[^64Cu]1, [^64Cu]Cu DOTA-EB-αvβ6-BP, metal not drawn] | 53.4 ± 0.9% | 53–63% | 41.9 ± 1.1% | 99% | 89% | 76% | 78% | 58% | 14% | 2.91 %ID/g | 2.56 %ID/g | 0.43 %ID/g | 0.07 %ID/g | 1.96 %ID/g | 0.96 %ID/g | 71.6 %ID/g | 0.9 %ID/g | 1.92 %ID/g | 1.65 %ID/g | 0.41 %ID/g | tissue uptake at 4 h [3, 15]: 0.39 %ID/g; tissue uptake at 4 h [3, 16]: 1.12 %ID/g; tissue uptake at 4 h [3, 17]: 0.91 %ID/g; tissue uptake at 4 h ([3]; spleen, read-out: Spleen uptake, blocked): 0.85 %ID/g; tissue uptake at 4 h [3, 18]: 0.72 %ID/g
2 | CC(C)C[C@H](NC(=O)[C@H](CC(=O)O)NC(=O)CNC(=O)[C@H](CCCNC(=N)N)NC(=O)[C@H](CC(C)C)NC(=O)[C@H](CC(N)=O)NC(=O)[C@@H]1CCCN1C(=O)[C@@H](NC(=O)[C@H](C)NC(=O)[C@H](CC(N)=O)NC(=O)CCOCCOCCOCCOCCOCCOCCOCCOCCOCCOCCOCCOCCOCCOCCOCCOCCOCCOCCOCCOCCOCCOCCOCCOCCOCCOCCOCCOCCNC(=O)[C@H](CCCCNC(=O)[C@H](CC(=O)O)NC(=O)CCCNC(=O)CCCc1ccc(I)cc1)NC(=O)CN1CCN(CC(=O)O)CCN(CC(=O)O)CCN(CC(=O)O)CC1)C(C)C)C(=O)N[C@@H](CCC(N)=O)C(=O)N[C@H](C(=O)N[C@@H](CC(C)C)C(=O)N[C@@H](C)C(=O)N[C@@H](CCC(N)=O)C(=O)N[C@@H](CCCNC(=N)N)C(=O)N[C@H](C(=O)N[C@@H](C)C(=O)N[C@@H](CCCNC(=N)N)C(=O)N[C@H](C(=O)NCCOCCOCCOCCOCCOCCOCCOCCOCCOCCOCCOCCOCCOCCOCCOCCOCCOCCOCCOCCOCCOCCOCCOCCOCCOCCOCCOCCOCCC(N)=O)[C@@H](C)O)C(C)C)C(C)C [[^64Cu]2, [^64Cu]Cu DOTA-IP-αvβ6-BP, metal not drawn] | 63.3 ± 1.5% | 42–44% | 44.0 ± 0.1% | 99% | 93% | 90% | 92% | 83% | 48% | 2.89 %ID/g | 3.98 %ID/g | 0.5 %ID/g | 0.09 %ID/g | 1.64 %ID/g | 1.31 %ID/g | 16.8 %ID/g | 1.26 %ID/g | 2.04 %ID/g | 2.08 %ID/g | 0.5 %ID/g | Fold higher stability than [64Cu]1 in mouse serum ([2]; 24 h): 3.4 fold; tissue uptake at 4 h [3, 15]: 0.76 %ID/g; tissue uptake at 4 h [3, 16]: 1.26 %ID/g; tissue uptake at 4 h [3, 17]: 1.18 %ID/g; tissue uptake at 4 h [3, 18]: 1.2 %ID/g
